Measurements published in ChEMBL document CHEMBL4482317, “Phosphatidylcholine transfer protein inhibitors” (2017).
Active and inactive are the calls of the source. The calls are words filed in the database; no cut-off is given here.

Tests used:
[1] = target: T1, Phosphatidylcholine transfer protein (Homo sapiens) (UniProt Q9UKL6); assay: Inhibition of PC-TP in human hepatocytes assessed as enhancement of insulin signaling by measuring p-AMPK-alpha T172 levels at 0.05 to 0.1 uM incubated for 60 mins by immunoblot analysis; assay type: cell-based
T1 sequence (whole entry): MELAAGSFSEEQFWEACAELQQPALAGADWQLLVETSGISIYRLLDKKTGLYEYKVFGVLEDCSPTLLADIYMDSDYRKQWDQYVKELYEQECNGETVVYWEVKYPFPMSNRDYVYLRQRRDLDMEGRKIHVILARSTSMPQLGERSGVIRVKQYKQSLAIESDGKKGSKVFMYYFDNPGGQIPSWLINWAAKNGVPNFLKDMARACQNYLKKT

[2] = target: T1, Phosphatidylcholine transfer protein (Homo sapiens); assay: Inhibition of PC-TP in human hepatocytes assessed as enhancement of insulin signaling by measuring p-AKT S473 levels at 0.05 to 0.1 uM incubated for 60 mins by immunoblot analysis; assay type: cell-based
[3] = target: T1, Phosphatidylcholine transfer protein (Homo sapiens); assay: Inhibition of PC-TP in human hepatocytes assessed as enhancement of insulin signaling by measuring p-GSK-3beta S9 levels at 0.05 to 0.1 uM incubated for 60 mins by immunoblot analysis; assay type: cell-based
[4] = target: T1, Phosphatidylcholine transfer protein (Homo sapiens); assay: Inhibition of PC-TP in human hepatocytes assessed as enhancement of insulin signaling by measuring p-S6K T389 levels at 0.05 to 0.1 uM incubated for 60 mins by immunoblot analysis; assay type: cell-based
[5] = target: T1, Phosphatidylcholine transfer protein (Homo sapiens); assay: Binding affinity to N-terminal His-tagged human PC-TP expressed in Escherichia coli assessed as relative binding constant K(rel) at 5 to 75 uM in presence of TCNQ by fluorescent pyrene-labeled phosphatidylcholine based displacement assay relative to control
[6] = target: T1, Phosphatidylcholine transfer protein (Homo sapiens); assay: Binding affinity to N-terminal His-tagged human PC-TP expressed in Escherichia coli at 5 to 75 uM in presence of TCNQ by fluorescent pyrene-labeled phosphatidylcholine based displacement assay
[7] = target: T2, Phosphatidylcholine transfer protein (Homo sapiens, UniProt Q9UKL6); assay: Inhibition of N-terminal His-tagged human PC-TP expressed in Escherichia coli using NBD-PC and donor and acceptor small unilamellar vesicles by fluorescence quench assay
T2 sequence (Q9UKL6 whole entry): T1 sequence (whole entry)

Question: Which inhibition [1] does the source give for `O=C(Nc1cc(Cl)cc(Cl)c1)C(Sc1cccc[n+]1[O-])c1ccccc1` (stereo unspecified) here?
Answer: Its inhibition is “Active”.

Question: And the inhibition [2]?
Answer: The inhibition was “Active”.

Question: And the inhibition [3]?
Answer: Its inhibition is “Active”.

Question: And the inhibition [4]?
Answer: Its inhibition is “Active”.

Question: `Cc1cc(C)nc(NS(=O)(=O)c2ccc(NC(=O)NC(=O)c3ccc(Cl)cc3Cl)cc2)n1` was tested. Which Ratio [5] did it give?
Answer: The Ratio was 1.1.

Question: And the inhibition [1]?
Answer: Its inhibition is “Active”.

Question: And the inhibition [2]?
Answer: The inhibition was “Active”.

Question: What about the inhibition [3] of the same compound?
Answer: The inhibition was “Active”.

Question: And the Activity [6]?
Answer: The Activity was “Dose-dependent effect”.

Question: And the inhibition [4]?
Answer: Its inhibition is “Active”.

Question: For `Cc1ccc(NC(=O)C(Sc2cccc[n+]2[O-])c2ccccc2)cc1Cl` (stereo unspecified), which IC50 [7] is on record?
Answer: Its IC50 is 100 µM.
